pEC50: −log10 of the molar value. Read-outs that look alike come from different tables or passages of the source.
Test system: NL-RLuc virus
Experiment: Inhibition of HIV replication (NL-RLuc luciferase reporter virus in MT-2 cells)
Format: cell-based
Conditions: Human immunodeficiency virus 1, MT2, 120 h; for pEC50: read-out: Activity; for EC50: read-out: EC50 μM
Description: Inhibition of HIV replication: A recombinant NL-RLuc proviral clone was constructed in which a section of the nef gene from NL4-3 was replaced with the Renilla Luciferase gene. This virus is fully infectious and can undergo multiple cycles of replication in cell culture. In addition, the luciferous reporter provides a simple and easy method for quantitating the extent of virus growth and consequently, the antiviral activity of test compounds. The plasmid pNLRLuc contains the proviral NL-Rluc DNA cloned into pUC18 at the PvuII site. The NL-RLuc virus was prepared by transfection of 293T cells with the plasmid pNLRLuc. Transfections were performed using the LipofectAMINE PLUS kit from Invitrogen (Carlsbad, Calif.) according to the manufacturer and the virus generated was titered in MT-2 cells. For susceptibility analyses, the titrated virus was used to infect MT-2 cells in the presence of compound, and after 5 days of incubation, cells were processed and quantitated for virus growth by the amount of expressed luciferase. Assay media was RPMI 1640 supplemented with 10% heat inactivated fetal bovine serum (FBS), 100 units/ml penicillin G/100 units/ml streptomycin, 10 mM HEPES buffer pH 7.55 and 2 mM L-glutamine. The results from at least 2 experiments were used to calculate the EC50 values. Luciferase was quantitated using the Dual Luciferase kit from Promega (Madison, Wis.). Susceptibility of viruses to compounds was determined by incubation in the presence of serial dilutions of the compound. The 50% effective concentration (EC50) was calculated by using the exponential form of the median effect equation where (Fa)=1/[1+(ED50/drug conc.)^m](Johnson V A, Byington R T. Infectivity Assay. In Techniques in HIV Research. ed. Aldovini A, Walker B D. 71-76. New York: Stockton Press. 1990). Activity equal to A refers to a compound having an EC50≤100 nM, while B and C denote compounds having an EC50 between 100 nM and 1 uM (B) or >1 uM (C).

| SMILES | pEC50 | EC50 |
| --- | --- | --- |
| COc1cc(N2CCc3cc(-c4c(C)nc(C)c([C@H](OC(C)(C)C)C(=O)O)c4N4CCC(C)(C)CC4)ccc3C2)nc(N)n1 [Compound 56] | > 7.00 | – |
| COc1ncnc(N2CCc3cc(-c4c(C)nc(C)c([C@H](OC(C)(C)C)C(=O)O)c4N4CCC(C)(C)CC4)ccc3C2)c1C [Compound 50] | > 7.00 | – |
| COc1cc(N2CCc3cc(-c4c(C)nc(C)c([C@H](OC(C)(C)C)C(=O)O)c4N4CCC(C)(C)CC4)ccc3C2)ncn1 [Compound 31] | > 7.00 | – |
| Cc1nc(C)c([C@H](OC(C)(C)C)C(=O)O)c(N2CCC(C)(C)CC2)c1-c1ccc2c(c1)CCN(c1cc(Nc3ccccc3)ncn1)C2 [Compound 53] | > 7.00 | – |
| COc1cc(N2CCc3cc(-c4c(C)nc(C)c([C@H](OC(C)(C)C)C(=O)O)c4N4CCC(C)(C)CC4)ccc3C2)nc(OC)n1 [Compound 14] | > 7.00 | – |
| COc1cnc(N2CCc3cc(-c4c(C)nc(C)c([C@H](OC(C)(C)C)C(=O)O)c4N4CCC(C)(C)CC4)ccc3C2)nc1 [Compound 34] | > 7.00 | – |
| Cc1nc(C)c([C@H](OC(C)(C)C)C(=O)O)c(N2CCC(C)(C)CC2)c1-c1ccc2c(c1)CCN(c1nccc(C(F)(F)F)n1)C2 [Compound 11] | > 7.00 | – |
| CNc1nccc(N2CCc3cc(-c4c(C)nc(C)c([C@H](OC(C)(C)C)C(=O)O)c4N4CCC(C)(C)CC4)ccc3C2)n1 [Compound 36] | > 7.00 | – |
| Cc1ccnc(N2CCc3cc(-c4c(C)nc(C)c([C@H](OC(C)(C)C)C(=O)O)c4N4CCC(C)(C)CC4)ccc3C2)n1 [Compound 30] | > 7.00 | – |
| CSc1nccc(N2CCc3cc(-c4c(C)nc(C)c([C@H](OC(C)(C)C)C(=O)O)c4N4CCC(C)(C)CC4)ccc3C2)n1 [Compound 39] | > 7.00 | – |
| Cc1nc(C(F)(F)F)nc(N2CCc3cc(-c4c(C)nc(C)c([C@H](OC(C)(C)C)C(=O)O)c4N4CCC(C)(C)CC4)ccc3C2)c1C [Compound 58] | > 7.00 | – |
| Cc1nc(C)c([C@H](OC(C)(C)C)C(=O)O)c(N2CCC(C)(C)CC2)c1-c1ccc2c(c1)CCN(c1cc(N)ncn1)C2 [Compound 42] | > 7.00 | – |
| Cc1nc(C)c([C@H](OC(C)(C)C)C(=O)O)c(N2CCC(C)(C)CC2)c1-c1ccc2c(c1)CCN(c1ccnc(N)n1)C2 [Compound 67] | > 7.00 | – |
| Cc1nc(C)c([C@H](OC(C)(C)C)C(=O)O)c(N2CCC(C)(C)CC2)c1-c1ccc2c(c1)CCN(c1ncc3cc(F)ccc3n1)C2 [Compound 75] | – | 0.003 µM |
| Cc1nc(C)c([C@H](OC(C)(C)C)C(=O)O)c(N2CCC(C)(C)CC2)c1-c1ccc2c(c1)CCN(c1cnc3ccccc3n1)C2 [Compound 71] | – | 0.01 µM |
| Cc1cc(N2CCc3cc(-c4c(C)nc(C)c([C@H](OC(C)(C)C)C(=O)O)c4N4CCC(C)(C)CC4)ccc3C2)nc(C)n1 [Compound 29] | > 7.00 | 0.004 µM |
| Cc1nc(C)c([C@H](OC(C)(C)C)C(=O)O)c(N2CCC(C)(C)CC2)c1-c1ccc2c(c1)CCN(c1ncnc3cc(Cl)ccc13)C2 [Compound 89] | – | 0.004 µM |

| SMILES | pEC50 | EC50 |
| --- | --- | --- |
| Cc1nc(C)c([C@H](OC(C)(C)C)C(=O)O)c(N2CCC(C)(C)CC2)c1-c1ccc2c(c1)CCN(c1nccs1)C2 [Compound 6] | > 7.00 | 0.007 µM |
| COc1nc(O)nc(N2CCc3cc(-c4c(C)nc(C)c([C@H](OC(C)(C)C)C(=O)O)c4N4CCC(C)(C)CC4)ccc3C2)n1 [Compound 13] | 6.00 to 7.00 | 0.278 µM |
| COc1cnc(SC)nc1N1CCc2cc(-c3c(C)nc(C)c([C@H](OC(C)(C)C)C(=O)O)c3N3CCC(C)(C)CC3)ccc2C1 [Compound 57] | > 7.00 | – |
| COc1nccc(N2CCc3cc(-c4c(C)nc(C)c([C@H](OC(C)(C)C)C(=O)O)c4N4CCC(C)(C)CC4)ccc3C2)n1 [Compound 40] | > 7.00 | 0.002 µM |
| Cc1nc(C)c([C@H](OC(C)(C)C)C(=O)O)c(N2CCC(C)(C)CC2)c1-c1ccc2c(c1)CCN(c1ncc(F)cn1)C2 [Compound 21] | > 7.00 | – |
| Cc1nc(O)cc(N2CCc3cc(-c4c(C)nc(C)c([C@H](OC(C)(C)C)C(=O)O)c4N4CCC(C)(C)CC4)ccc3C2)n1 [Compound 65] | 6.00 to 7.00 | – |
| Cc1nc(C)c([C@H](OC(C)(C)C)C(=O)O)c(N2CCC(C)(C)CC2)c1-c1ccc2c(c1)CCN(c1ncnc3c1CCC3)C2 [Compound 52] | > 7.00 | – |
| Cc1nc(C)c([C@H](OC(C)(C)C)C(=O)O)c(N2CCC(C)(C)CC2)c1-c1ccc2c(c1)CCN(c1nc(-c3ccccc3)cs1)C2 [Compound 3] | > 7.00 | – |
| Cc1nc(C)c([C@H](OC(C)(C)C)C(=O)O)c(N2CCC(C)(C)CC2)c1-c1ccc2c(c1)CCN(c1nc(N(C)C)c3ccccc3n1)C2 [Compound 82] | – | 0.001 µM |
| Cc1nc(C)c([C@H](OC(C)(C)C)C(=O)O)c(N2CCC(C)(C)CC2)c1-c1ccc2c(c1)CCN(c1ncnc(N)c1C)C2 [Compound 55] | > 7.00 | 0.004 µM |
| Cc1cn(-c2ccc(N3CCc4cc(-c5c(C)nc(C)c([C@H](OC(C)(C)C)C(=O)O)c5N5CCC(C)(C)CC5)ccc4C3)nn2)cn1 [Compound 69] | > 7.00 | – |
| CSc1nc(N2CCc3cc(-c4c(C)nc(C)c([C@H](OC(C)(C)C)C(=O)O)c4N4CCC(C)(C)CC4)ccc3C2)cc(C(F)(F)F)n1 [Compound 63] | > 7.00 | – |
| Cc1nc(C)c([C@H](OC(C)(C)C)C(=O)O)c(N2CCC(C)(C)CC2)c1-c1ccc2c(c1)CCN(c1cc(C3CC3)ncn1)C2 [Compound 43] | > 7.00 | – |
| Cc1ncnc(N2CCc3cc(-c4c(C)nc(C)c([C@H](OC(C)(C)C)C(=O)O)c4N4CCC(C)(C)CC4)ccc3C2)c1F [Compound 24] | > 7.00 | – |
| Cc1cc(N2CCc3cc(-c4c(C)nc(C)c([C@H](OC(C)(C)C)C(=O)O)c4N4CCC(C)(C)CC4)ccc3C2)ncn1 [Compound 19] | > 7.00 | – |
| Cc1nc(C)c([C@H](OC(C)(C)C)C(=O)O)c(N2CCC(C)(C)CC2)c1-c1ccc2c(c1)CCN(c1ncnc3ccccc13)C2 [Compound 76] | – | 0.002 µM |
| Cc1nc(C)c([C@H](OC(C)(C)C)C(=O)O)c(N2CCC(C)(C)CC2)c1-c1ccc2c(c1)CCN(c1ncnc3ccc(F)cc13)C2 [Compound 85] | – | 0.002 µM |

From patent publication US20200325127A1, “PYRIDIN-3-YL ACETIC ACID DERIVATIVES AS INHIBITORS OF HUMAN IMMUNODEFICIENCY VIRUS REPLICATION” (priority 2016, published 2020)
